Experimental data from patent publication US20240060113A1, “PRESERVATION OF FETAL NUCLEIC ACIDS IN MATERNAL PLASMA” (STRECK LLC, priority 2009, published 2024).

Tested on: non-human (lambda) DNA
Assay: Lambda DNA spiked into plasma, stored at room temperature, Quantitative PCR (Example 2, FIG. 3)
Settings: plasma stored at room temperature 0 to 14 days
Protocol: Blood samples from the same donor are drawn into two different types of blood collection tubes. One tube contains 500 g/L IDU, 81 g/L Tripotassium EDTA and 47 g/L glycine. The other tube contains only Heparin. All samples are centrifuged at 2100 g for 30 minutes at room temperature to separate the plasma. The plasma is then transferred to new tubes and non-human (lambda) DNA is then spiked into the plasma tubes. The spiked samples are then stored at room temperature for 0, 1, 2, 3, 4, 7, 11, and 14 days. Free circulating DNA is purified using the QIAamp® DNA Blood Mini Kit available from QIAGEN Inc. (Valencia, CA). DNA is extracted from each plasma sample. The samples are then amplified by Quantitative PCR (using iQ SYBR Green Supermix reagents available from BIO-RAD Laboratories (Hercules, California)) to identify the amount of lambda DNA present. […] The expected results of this example are shown in graphic format at FIG. 3. This example confirms that the compositions of the present invention are able to maintain the integrity and amount of DNA present in a blood sample.

Heparin
relative percentage of lambda DNA present: decreases at every consecutive measurement
